Values of other authors, collected in patent US11439715B2, “Compositions and methods to detect GLUA1 in brain and to identify the presence of GLUA1-mediated post-traumatic stress disorder and other neurological disorders” (Neurovation Labs, Inc., priority 2017, dated 2022).
Entries after “also recorded” stand apart in the source; their conditions may differ. Read-outs that look alike come from different tables or passages of the source.

Assays:
[1] = test system: Stress-Enhanced Fear Learning (SEFL), a rodent model of PTSD
GluA1 = conditions: stressed rats, metyrapone given before the trauma, measured three weeks after the trauma
GluN1 = conditions: stressed and unstressed rats, measured three weeks after the trauma
GluA2 = conditions: stressed and unstressed rats, measured three weeks after the trauma

SMILES	percent freezing in Context B on Day 3 (sensitized fear, SEFL) ([1]; intra-BLA infusion post-trauma, compared with stressed controls (ACSF or MSO), hydrobromide)	GluA1 protein levels in the BLA (GluA1:GAPDH optical density ratio) (GluA1)	GluA1 protein levels in the BLA (GluA1:GAPDH optical density ratio) (GluA1; listed as metyrapone)	GluN1 levels in the BLA (GluN1:GAPDH optical density ratio) (GluN1)	SEFL (stress-enhanced fear learning) ([1]; metyrapone given before the trauma)	GluA2 levels in the BLA (GluA2:GAPDH optical density ratio) (GluA2)
Br.C[N+](C)(C)CCCCCNCC12CC3CC(CC(C3)C1)C2.[Br-] [IEM-1460, N,N,H,-Trimethyl-5-[(tricyclo[3.3.1.13,7]dec-1-ylmethyl)amino]-1-pentanaminiumbromide hydrobromide]	significantly reduces freezing in Context B; also recorded: attenuate SEFL					
CC(C)(C(=O)c1cccnc1)c1cccnc1 [Metyrapone]		prevented GluA1 increases	significantly higher in stressed rats than in unstressed rats and metyrapone-treated rats	Neither stress nor metyrapone had an effect on GluN1 levels	effectively preventing SEFL	Neither stress nor metyrapone had an effect on GluA2 levels
